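These data come from cells grown in 96-well plates and exposed to compound for 48 hours at five concentrations. GI50 marks 50% less growth. TGI is the concentration that stops growth completely.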 Where only a bound is given, the exact number is not on record here.

Among the test systems are ACHN renal; NCI-H460 lung; SW-620 colon; OVCAR-5 ovarian; SF-295 CNS; KM12 colon; UACC-62 melanoma; M14 melanoma; MOLT-4 leukemia; UO-31 renal.
What all share (assay): DTP human tumour cell line panel, 48 h

For orientation: GI50 means the concentration giving 50% growth inhibition. One may read the TGI as the concentration giving total growth inhibition. Low values mean more potent growth arrest, high ones less potent growth arrest. With `O=C(CC1(O)C(=O)Nc2ccc(Br)cc21)c1ccc(C(=O)NCC2CCC3(CC2)OOC2(CCCCC2)OO3)cc1` (centres undefined), the GI50 in the experiment on ACHN renal was 2.02 µM; in the experiment on NCI-H460 lung it was 3.37 µM; in the experiment on SW-620 colon it was 2.76 µM; with OVCAR-5 ovarian, 13.8 µM; in the experiment on SF-295 CNS, 7.1 µM; in the experiment on KM12 colon it was 3.08 µM. The results for the GI50 with UACC-62 melanoma, with M14 melanoma and in the experiment with MOLT-4 leukemia were 5.77 µM, 8.68 µM and 2.14 µM, respectively. Besides, the TGI in the experiment on ACHN renal was 5.38 µM; in the experiment with NCI-H460 lung, 30.2 µM; with SW-620 colon, 13 µM; in the experiment on OVCAR-5 ovarian, 63.8 µM; with SF-295 CNS, 35 µM; in the experiment with KM12 colon, 31.2 µM. Moreover, the concentration for total growth inhibition (TGI) in the experiment with UACC-62 melanoma stood at 29.2 µM; with M14 melanoma, 63.4 µM; with MOLT-4 leukemia it was 5.87 µM.
For the compound `Cc1ncc(CO)c(CN)c1O`, the TGI in the experiment on ACHN renal, in the experiment on NCI-H460 lung, in the experiment with SW-620 colon, in the experiment on OVCAR-5 ovarian, with SF-295 CNS and with KM12 colon was greater than 100 µM in each case. For the same compound, the TGI in the experiment with UACC-62 melanoma, with M14 melanoma, with MOLT-4 leukemia and in the experiment with UO-31 renal was greater than 100 µM in each case.
As to `CC[C@H](Nc1nc(N)nc(N)c1Cl)c1nc2cccc(NCc3ccc(C(=O)NO)cc3)c2c(=O)n1-c1ccccc1`, the GI50 in the experiment on ACHN renal is 1.98 µM; in the experiment with NCI-H460 lung, 1.94 µM; with SW-620 colon, 1.63 µM; in the experiment on OVCAR-5 ovarian, 1.61 µM; in the experiment with KM12 colon, 2.08 µM; in the experiment with UACC-62 melanoma it was 1.41 µM. Besides, in the experiment on MOLT-4 leukemia, the GI50 was 1.47 µM. The TGI came to 4.2 µM in the experiment with ACHN renal; 4.43 µM in the experiment with NCI-H460 lung; 4.71 µM with SW-620 colon; 3.36 µM with OVCAR-5 ovarian; 4.62 µM in the experiment on KM12 colon; 2.81 µM in the experiment on UACC-62 melanoma. Besides, the concentration for total growth inhibition (TGI) in the experiment on MOLT-4 leukemia is 16.6 µM.
Regarding `c1ccc2c[n+](CCCCCCCCCC[n+]3ccc4ccccc4c3)ccc2c1`, the TGI in the experiment with ACHN renal, in the experiment on NCI-H460 lung, in the experiment on SW-620 colon, with OVCAR-5 ovarian, in the experiment on SF-295 CNS and in the experiment with KM12 colon was greater than 10 µM throughout. The total growth inhibition concentration (TGI) in the experiment with UACC-62 melanoma, in the experiment on M14 melanoma and with UO-31 renal was greater than 10 µM each time.
On to `CN(C)c1ccc2nc3c(C(=O)O)cc(=O)c(O)c-3oc2c1`, for which the total growth inhibition concentration (TGI) is greater than 100 µM in the experiment with ACHN renal; 66 µM with NCI-H460 lung; greater than 100 µM with SW-620 colon; greater than 100 µM with OVCAR-5 ovarian; greater than 100 µM in the experiment with SF-295 CNS; greater than 100 µM with KM12 colon. Moreover, the total growth inhibition concentration (TGI) in the experiment with UACC-62 melanoma was found to be 46 µM; with M14 melanoma it was 49.8 µM; in the experiment with MOLT-4 leukemia it was 51.8 µM; with UO-31 renal, 80.1 µM.
`COc1cc2c(cc1OC)C(Cl)C(c1ccc(Cl)cc1)=C2Cl` (centres undefined): the TGI with ACHN renal is 30.1 µM; with NCI-H460 lung, 29.8 µM; in the experiment on SW-620 colon it was 52 µM; with SF-295 CNS, 30 µM; in the experiment on UACC-62 melanoma, 40.4 µM; in the experiment on M14 melanoma, 33.6 µM. The TGI in the experiment with MOLT-4 leukemia was determined as 42.5 µM; in the experiment on UO-31 renal it was 32.6 µM.
On to `CC(C)CNc1nc(N)[nH]c(=O)c1NC=O`, for which the total growth inhibition concentration (TGI) in the experiment with ACHN renal, with NCI-H460 lung, with SW-620 colon, with OVCAR-5 ovarian, in the experiment on SF-295 CNS and in the experiment with KM12 colon was greater than 100 µM each time. For the same compound, the concentration for total growth inhibition (TGI) in the experiment with UACC-62 melanoma, with M14 melanoma, in the experiment on MOLT-4 leukemia and with UO-31 renal was greater than 100 µM throughout.
Take `O=C(O)c1ccccn1`: the TGI in the experiment with ACHN renal, in the experiment with NCI-H460 lung, in the experiment on SW-620 colon, with OVCAR-5 ovarian, with SF-295 CNS and with KM12 colon was greater than 100 µM each time. Moreover, the total growth inhibition concentration (TGI) with UACC-62 melanoma, with M14 melanoma, in the experiment on MOLT-4 leukemia and with UO-31 renal was greater than 100 µM in each case.
In the case of `NCS(=O)(=O)O`, the concentration for total growth inhibition (TGI) with ACHN renal, in the experiment on NCI-H460 lung, in the experiment with SW-620 colon, in the experiment with OVCAR-5 ovarian, with SF-295 CNS and in the experiment with KM12 colon was greater than 100 µM in each case. In addition, the concentration for total growth inhibition (TGI) in the experiment with UACC-62 melanoma, in the experiment with M14 melanoma, with MOLT-4 leukemia and in the experiment on UO-31 renal was greater than 100 µM in each case.
For the compound `N=C(N)c1ccc(-c2ccc(-c3ccc(Cl)cn3)s2)cc1`, the GI50 in the experiment on ACHN renal was 1.61 µM; in the experiment on OVCAR-5 ovarian it was 1.58 µM; with UACC-62 melanoma, 1.84 µM; in the experiment with M14 melanoma, 1.77 µM; with UO-31 renal, 1.68 µM. Further, the TGI was 2.96 µM in the experiment on ACHN renal; 3.04 µM with OVCAR-5 ovarian; 3.38 µM with UACC-62 melanoma; 3.24 µM in the experiment on M14 melanoma; 3.07 µM with UO-31 renal.
On to `COc1cc2ccc1-c1cc(ccc1O)CC1c3cc4c(cc3CCN1C)Oc1c(OC)cc3c(c1O4)C(C2)N(C)CC3` (centres undefined), for which the TGI in the experiment with ACHN renal stood at 3.74 µM; in the experiment on NCI-H460 lung, 3.23 µM; in the experiment on SW-620 colon, 3.31 µM; in the experiment on OVCAR-5 ovarian it was 8.86 µM; in the experiment on SF-295 CNS, 3.33 µM; in the experiment on KM12 colon it was 3.32 µM. Further, the TGI worked out at 3.44 µM with UACC-62 melanoma, 3.32 µM in the experiment on M14 melanoma, 4.22 µM in the experiment on MOLT-4 leukemia and 3.27 µM in the experiment on UO-31 renal.
With `CN(C)CCNC(=O)c1cccc2nc3c4ccccc4c4ccccc4c3nc12`, the TGI stood at 12.4 µM with ACHN renal; 2.35 µM in the experiment with NCI-H460 lung; 6.59 µM with SW-620 colon; 14.2 µM in the experiment on OVCAR-5 ovarian; 10.1 µM in the experiment with SF-295 CNS; 3.06 µM with KM12 colon. In addition, the TGI was 5.51 µM in the experiment with UACC-62 melanoma, 4.97 µM in the experiment on M14 melanoma, 4.96 µM in the experiment with MOLT-4 leukemia and 22.9 µM with UO-31 renal.

Values taken from PubChem BioAssay (NCI).
